# Activity calls are given as the source filed them. No cut-off for these calls is given here.
# How the values were obtained:
# [1] = Cell cycle arrest in mouse temperature-sensitive FT210 cells by accumulation at M phase at 2.0 uM by flow cytometry; format: functional, cell-based
# [2] = Cell cycle arrest in mouse temperature-sensitive FT210 cells by accumulation at M phase at 2.1 uM by flow cytometry; format: functional, cell-based
SMILES,Activity [1],Activity [2]
CC(=O)O[C@@H]1/C=C/[C@](C)(O)C[C@@H](C)C/C=C/[C@H]2C=C(C)[C@@H](C)[C@H]3[C@H](Cc4ccccc4)NC(=O)[C@]321,Active,Active
CC(=O)O[C@@H]1/C=C/[C@](C)(O)C[C@@H](C)C/C=C/[C@H]2[C@@H]3O[C@]3(C)[C@@H](C)[C@H]3[C@H](Cc4ccccc4)NC(=O)[C@@]312,Active,Active

# Reference: ChEMBL document CHEMBL1146444, “RKS-1778, a new mammalian cell-cycle inhibitor and a key intermediate of the [11]cytochalasin group” (J Nat Prod, 1997)
